Results reported in patent US6271238A, “Acetamide derivatives and protease inhibitors” (Nippon Kayaku Kabushiki Kaisha, priority 1996, dated 2001).
Where a name gives a salt, the structure may show the parent alone.

Test system: guinea pig eosinophils
Assay: Inhibitory action on eosinophils (release of active oxygen from guinea pig eosinophils)
Assay type: cell-based
Details: Cavia porcellus, Eosinophil, 5 min, PAF, luminol chemiluminescence for 5 minutes
Protocol: Inhibitory activity on eosinophil activation
(A) Preparation of eosinophils
Polymyxin B (produced by Sigma) was administered intraperitoneally into a guinea pig (Hartley, male, 6-week-old) at a dosage of 1 mg once every week for 6 to 8 weeks. After the final administration of polymyxin B. 50 ml of PBS (phosphate-buffered saline) was injected into the intraperitoneal cavity of the guinea pig, and cells were recovered. The cells were centrifuged at 800 rpm for 5 minutes and the abdomen infiltration cells were collected as precipitates and then suspended in 1 ml of 40% Ficoll (40% Ficoll (produced by Pharmacia), HBSS (Hanks' balanced salt solution) and layered on a Ficoll discontinuous density gradient (40 to 90%). It was centrifuged at 1500 rpm for 40 minutes, and the eosinophil fraction was recovered. In this operation, eosinophils of 99% or more purity were usually obtained. Further, the cells were washed twice with RPMI 1640 medium (10% BSA (bovine serum albumin available from Boehringer Mannheim), suspended again at a predetermined density, and used in the objective experiment.
(B) Inhibitory action on eosinophils (inhibitory action on release of active oxygen from guinea pig eosinophils)
The eosinophils (99% or more purity) obtained by the Ficoll density gradient method in (A) above were suspended at a cell density of 4×10^5 in a buffer solution (0.136 M sodium chloride, 2.7 mM potassium chloride, 1.8 mM calcium chloride, 1.0 mM magnesium chloride, 11.9 mM sodium hydrogen carbonate, 5.5 mM D-glucose, 5.0 mM HEPES, 0.36 mM sodium dihydrogen phosphate, pH 7.2). Each drug (2 μl) and 180 μl of the cell suspension were put to a 96-well multi-well plate (for chemiluminescence measurement, white type) previously kept at 37° C., and incubated at 37° C. for 10 minutes. After incubation, 20 μl of PAF (platelet-activating factor) (5×10^-6 M) and 20 μl of a luminol solution were added to it and immediately examined for its chemiluminescence (Luminoskan Labosystem). The chemiluminescence for 5 minutes were measured to calculate 50% inhibitory concentration (IC50: μM).

Row | SMILES | IC50
1 | Nc1cnc(-c2ccccc2)n(CC(=O)NC(Cc2ccccc2)C(=O)C(=O)CCCc2ccccc2)c1=O (centres unmarked) [Compound 40] | 5.6 µM
2 | CC(=O)C(=O)C(Cc1cccc(F)c1)NC(=O)Cn1c(-c2ccccc2)ncc(N)c1=O (centres unmarked) [Compound 52, 2-(5-Amino-6-oxo-2-phenyl-1,6-dihydropyrimidine-1-yl)-N-{1-(3-fluorophenyl)methyl-2,3-dioxo}butylacetamide] | 26 µM

Results, then the molecule that gave them:

Row | IC50 | SMILES
3 | 18 µM | CCCCC(=O)C(=O)C(Cc1ccccc1)NC(=O)Cn1c(-c2ccccc2)ncc(N)c1=O (centres unmarked) [Compound 44]
4 | 3 µM | Nc1cnc(-c2ccccc2)n(CC(=O)NC(Cc2ccccc2)C(=O)C(=O)CCCn2ccccc2=O)c1=O (centres unmarked) [Compound 73, 2-(5-Amino-6-oxo-2-phenyl-1,6-dihydropyrimidine-1-yl)-N-{2,3-dioxo-1-phenylmethyl-6-(2-oxo-1,2-dihydropyridine-1-yl)}hexylacetamide hydrochloride]
5 | 62 µM | CCOC(=O)CCCC(=O)C(=O)C(Cc1cccc(F)c1)NC(=O)Cn1c(-c2ccccc2)ncc(N)c1=O (centres unmarked) [Compound 54]
